What was measured:
Type in all cases: cell-based, human
[1] = test system: A2780 cells; assay: Cell viability, MTT assay, A2780
Description: Determination of viability of cells in the presence of prodrugs and controls A2780 and BL-2 cells The medium was removed, and the cells were washed two times with DPBS, trypsinated, and resuspended in RPMI 1640 medium (A2780) supplemented with 5% FBS (for 24 h and 48 h assay) or 10% FBS (for 96 h assay) , 1% L-glutamine, and 1% penicillin/streptomycin.
A2780 cells: This suspension was spread in the wells of a 96 -well microtiter plate (25000 cells for A2780 per well per 100 μL) and left standing at 37 °C in the chamber filled with CO2 (5%) for overnight. Stock solutions of prodrugs of different concentra tions (1 μL, solvent dmso, final concentrations in wells were 2, 5, 10, 30, 50 μM) were added to the wells and incubated for specific periods of time. Four experiments were conducted for each concentration of the prodrug. Finally, 3-(4,5-dimethylthiazol-2-yl)-2,5-diphenyltetrazolium bromide (MTT, 20 μL of the solution prepared by dissolving MTT (5 mg) in DPBS buffer (1 mL)) was added to each well, incubated for 3 h, treated with sodium dodecyl sulfate (SDS) solution (90 μL, 10% solution in 0.01 M aqueous HC l), and incubated overnight. Afterward, the intensity of the absorbance at 590 nm was measured.
MTT is converted in live cells to blue dye with the absorbance maximum λ max at 590 nm.
The absorbance at 690 nm was taken as a baseline value. The baseline corrected absorbance at 590 nm (A(590 nm) − A(690 nm)) was applied to calculate the relative number of viable cells. IC50 values were determined by fitting the experimental data expressing the number of viable cells (%, Y-axis) versus drug concentration (μM, X-axis) with a line curve and the X-axis value corresponding to 50% viability was considered as IC50 value according to the line curve (Figure S50, Table S2). […]

[2] = test system: Jurkat cells; assay: Jurkat flow cytometry (AnnexinA5/PI viability, DiIC1(5) MMP, monobromobimane GSH, cell cycle); conditions: for IC50: 48 h incubation
Description: Jurkat cells The cells were counted in MUSE Cell Analyzer using MUSE® Count &Viability Assay Kit (Merck-Millipore, Billerica, MA, USA) and adjusted to a density of 1.0 x 10^5/ml in RPMI 1640 medium (with 10% FCS and 1% glutamine). 9.000 cells per well per 90 µL were seeded into 96 well culture plates. The 30 mM prodrug stock solutions in DMSO were diluted to 300 µM, 100 µM, 30 µM and 10 µM in cell culture medium and 10 µL of the dilutions was pipetted to the cells, receiving final test concentrations of 30 µM, 10 µM, 3 µM and 1 µM. Every concentration was tested in triplicates. Cells with corresponding amounts of DMSO served as negative controls. After 48 h cells were mixed and 25 µL of […]
the cell suspension was incubated with 200 µL of freshly prepared staining solution, consisting of AnnexinA5-Fitc (1 µL), 1,1′,3,3,3′,3′-hexamethylindodicarbocyanine iodide (DiIC1(5), 0.4 µL) (both from ThermoFisher Scientific, Waltham, MA, USA), propidium iodide (PI, 67 ng) and monobromobimane (MBB, 33 µM, both from Sigma-Aldrich, Taufkirchen, Germany) per 1 ml Ringer’s solution (Fresenius Kabi AG, Bad Homburg, Germany). Cells were incubated for 20 min at 4°C and then analyzed in Gallios cytofluorometer™ (Beckman Coulter, Fullerton, CA, USA). Fitc and propidium iodide were excited at 488 nm; Fitc fluorescence was recorded on the FL1 sensor (525/38 nm band pass, BP) and propidium iodide fluorescence was detected on FL3 sensor (620/30 nm BP), DiIC1(5) fluorescence was excited at 638 nm and detected on FL6 sensor at 675/20 nm BP, and monobromobimane fluorescence was excited at 405 nm and detected on FL9 sensor at 430/40 nm BP. To eliminate any fluorescence bleed-through, electronic compensation was used. Data were analyzed employing Kaluza™ software Version 1.2 (Beckman Coulter, Fullerton, CA, USA) and processed in Microsoft Excel (Figures S51-S54, Table S5). Cells negative for Annexin A5-Fitc and propidium iodide were considered viable. IC50 values were determined by fitting the % values of Ax-PI- cells versus drug concentration with a sigmoidal curve using GraphPad Prism software. Reduced glutathione (an intracellular thiol) can be detected by monobromobimane, a dye that becomes fluorescent after non-enzymatic binding to thiols.[S3] For analysis of amount of mitochondrial membrane potential or reduced glutathione the mean fluorescence index (MFI) was determined from viable cells by gating on Ax -PI- events.
Table S5. Effects of the prodrugs on the viability of Jurkat cell lines (IC50 values) after 48

[3] = test system: SAS and FaDu cells; assay: Semi-quantitative radiosensitization grade over SAS and FaDu; design: key: no radiosensitization (“-”); weak effect or effect in one cell line only (“+/−”); clear/strong (“+”) radiosensitization; conditions: clonogenic survival with irradiation
Description: defined low density (150-300 cells in 1 ml per well). After 8 h of incubation to allow cell adherence, 50% of the supernatant was exchanged by media containing the respective prodrugs at 2x concentration and exposed for 48 h. Treatment was then terminated by medium removal, and cells were allowed to grow for a period of ≥5-6 cell divisions estimated from the cell line-specific doubling times of the respective untreated controls (~7 days for SAS and ~10 days for FaDu cells). Control cells were always handled in parallel to the treated cells and thus exposed to the corresponding DMSO concentration(s). After the defined growth intervals, cells were fixed, stained and colonies of >50 cells were manually counted at low magnification to calculate plating efficiencies as the number of counted colonies relative to the number of seeded cells. Drug effect on clonogenic survival was then estimated by normalizing the colony formation of control cells to 1 (Table S9).
The colony formation assay was also applied for monitoring radioresponse. Here, increasing numbers of single cells relative to the irradiation dose (0-10 Gy) were seeded into 6-well plates (150-2400 SAS cells/well and 300-4800 FaDu cells/well).
Cells were treated with the drugs upon attachment as described. The total period of drug exposure was 48 h, and single dose irradiation was carried out 24 h after addition of the compounds. X-ray was performed at room temperature with a YxlonY.TU 320 system (Yxlon.international, 200 kV, 0.5 mm Cu filter) and a dose rate of ~1.3 Gy/min. Drug exposure was terminated by medium exchange and cultures were then incubated for the additional time period highlighted earlier.
Plating efficiencies were assessed and normalized for each treatment arm to the respective unirradiated control. Data were reproduced (N=3 each with n=3 wells per experiment and treatment condition). The relative clonogenic cell survival (= survival fraction, SF) was then plotted as function of the irradiation dose, and clonogenic survival curves were fitted employing the linear quadratic model as described

| Compound | cell viability at which the effect is saturated ([1]; A2780, 24 h) [%] | IC50 ([1]; A2780, 24 h incubation) [µM] | cell viability at which the effect is saturated ([1]; A2780, 48 h) [%] | IC50 ([1]; A2780, 48 h incubation) [µM] | cell viability at which the effect is saturated ([1]; A2780, 96 h) [%] | IC50 ([1]; A2780, 96 h incubation) [µM] | effect on MMP ([2]; 48 h) | effect on cell cycle ([2]; 48 h) | effect on intracellular GSH amount ([2]; 48 h) | mechanism of cell death ([2]; 48 h, Annexin A5/PI) | IC50 [2] [µM] | Radiosensitization ([3]; 10 µM) | Radiosensitization ([3]; 25 µM) | Radiosensitization ([3]; 1 µM) | Radiosensitization ([3]; 2.5 µM) |
| --- | --- | --- | --- | --- | --- | --- | --- | --- | --- | --- | --- | --- | --- | --- | --- |
| CC1(C)OB(c2ccc(COC(=O)N(Cc3cn(Cc4ccc(Cn5cc(Cc6ccccc6)nn5)cc4)nn3)[c-]3cccc3)cc2)OC1(C)C.[Fe+2].c1cc[cH-]c1 [2c] | 70 | > 30 | 50 | > 30 | 43 | 4 ± 0.5 | decrease | cell-cycle arrest in the G0/G1 phase | unaffected | mainly via necrosis | 5 ± 2 | +/− | + |  |  |
| [Fe+2].c1cc[cH-]c1.c1cc[cH-]c1 [compound 6, ferrocene] |  | > 100 |  | > 100 |  | > 100 |  |  |  |  | > 100 |  | - |  |  |
| CC1(C)OB(c2ccc(COC(=O)N(Cc3cccc(CN4CCCCC4)c3)[c-]3cccc3)cc2)OC1(C)C.[Fe+2].c1cc[cH-]c1 [5b] |  |  |  | 7 ± 2 |  | 7 ± 2 |  |  |  |  | 7.2 ± 0.1 |  |  | + | + |
| CCOC(=O)CCCCCn1cc(CN(C(=O)OCc2ccc(B3OC(C)(C)C(C)(C)O3)cc2)[c-]2cccc2)nn1.[Fe+2].c1cc[cH-]c1 [compound 1] |  |  |  | 32 ± 3 |  | 30 ± 5 | slight increase |  | slight increase |  | 30 ± 4 |  |  |  |  |

Reference: PMC8750417, “Intracellular Amplifiers of Reactive Oxygen Species Affecting Mitochondria as Radiosensitizers” (Cancers, 2021)
